This note sets out measurements from patent publication US8075562B2, “Controlled release of biopharmaceutical growth factors from hydroxyapatite coating on bioresorbable interference screws used in cruciate ligament reconstruction surgery” (Wisconsin Alumni Research Foundation, priority 2007, dated 2011).

In experiment [1] the test system is mesenchymal stem cells. The experiment can be described thus: Stem cell-based bioactivity assay (alkaline phosphatase upregulation, osteogenic differentiation).
Experiment [2] in a line: Binding of engineered BMP-2 peptide to hydroxyapatite in solution. The note with it: preliminary results. From the text: Binding growth factors to calcium phosphate minerals. Characterization of binding of engineered bone morphogenetic protein-2 peptide (eBMP-2) to CaP mineral materials is characterized. […] (See, FIGS. 10 and 11). […] (See, FIGS. 12 and 13). […] BMP-2 will be used because it has a high intrinsic affinity for CaP minerals.

Entries after “also recorded” stand apart in the source; their conditions may differ. Where two headings read alike, the source gives them in different places.

With “KIPKA SSVPT ELSAI STLYL (KIPKASSVPTELSAISTLYL) [eBMP-2, engineered bone morphogenetic protein-2 peptide; hBMP-2: 73-92 (C78, 79S, M89T)]”, the figures for the “osteogenic differentiation / alkaline phosphatase upregulation” value in experiment [1] and in experiment [1] (listed as e-BMP-2) were “biologically active” and “promotes osteogenic differentiation”, respectively. Also, the “binding to hydroxyapatite in solution” value in experiment [2] is recorded as “forms strong ionic bonds to hydroxyapatite; also recorded: binds to the hydroxyapatite mineral in solution”.
